Source: patent US12630594B2, “Allergy antigen and epitope for same” (HOYU CO., LTD., priority 2017, dated 2026)
Where no end group is shown, it is not given here.

Assays:
Assay type in all cases: binding, human
[1] = system: IgE antibodies from patients; test: Epitope mapping (2): overlapping 10-amino-acid peptide fragments shifted by one amino acid; settings: positions numbered within the 15-amino-acid epitope; serum of 5 patients
Text: On the basis of the sequences (SEQ ID NOs: 150-154 for alpha-actinin-3, SEQ ID NO: 155 for EEF1A2 binding protein-like, SEQ ID NOs: 156 and 157 for alpha-1,4-glucan phosphorylase, SEQ ID NOs: 158 and 159 for elongation factor 2, SEQ ID NOs: 160-162 for heat shock cognate 70 kDa protein, SEQ ID NOs: 163-167 for serotransferrin, SEQ ID NOs: 168-171 for myosin binding protein H-like, SEQ ID NOs: 172-174 for desmin (fragment), SEQ ID NOs: 175-178 for capping protein (actin filament) muscle Z-line beta, SEQ ID NOs: 179-185 for myosin heavy chain, fast skeletal muscle-like, SEQ ID NO: 186 for glycogen phosphorylase, muscle form-like, SEQ ID NOs: 187-196 for myosin-binding protein C, fast-type-like, SEQ ID NO: 197 for ATP synthase subunit beta, mitochondrial, SEQ ID NO: 198 for L-lactate dehydrogenase A chain-like, SEQ ID NO: 199 for aldolase, SEQ ID NOs: 200-202 for β-enolase, and SEQ ID NOs: 203 and 204 for glyceraldehyde-3-phosphate dehydrogenase) of the peptides bound to an IgE antibody in serum in a patient-specific manner as described above in (A), a library of overlapping peptide fragments (length: 10 amino acids) was prepared using the sequences of the peptides and sequences in which sequences were added so as to flank each peptide in the amino acid sequences of allergen components (SEQ ID NO: 2 for alpha-actinin-3, SEQ ID NO: 5 for EEF1A2 binding protein-like, SEQ ID NO: 10 for alpha-1,4-glucan phosphorylase, SEQ ID NO: 19 for elongation factor 2, SEQ ID NO: 26 for heat shock cognate 70 kDa protein, SEQ ID NO: 33 for serotransferrin, SEQ ID NO: 43 for myosin binding protein H-like, SEQ ID NO: 56 for desmin (fragment), SEQ ID NO: 61 for capping protein (actin filament) muscle Z-line beta, SEQ ID NO: 70 for myosin heavy chain, fast skeletal muscle-like, SEQ ID NO: 110 for glycogen phosphorylase, muscle form-like, SEQ ID NO: 121 for myosin-binding protein C, fast-type-like, SEQ ID NO: 138 for ATP synthase subunit beta, mitochondrial, SEQ ID NO: 144 for L-lactate dehydrogenase A chain-like, SEQ ID NO: 445 for aldolase, SEQ ID NO: 446 for β-enolase, and SEQ ID NO: 447 for glyceraldehyde-3-phosphate dehydrogenase) comprising the sequences of the peptide. Epitope mapping was carried out using the library.
The peptides to be synthesized were shifted by one amino acid.
The library was prepared by the same procedure as described above in (A), and the presence or absence of binding of an IgE antibody present in the serum of a patient and a non-fish-allergic subject to each peptide fragment was measured by the same technique as described above. Amino acids at positions where the binding activity against IgE antibodies from patients were lost or decreased in the peptides shifted by one amino acid while binding activity against IgE antibodies from non-fish-allergic subjects arose were confirmed as amino acids adversely affecting the specificity of binding to IgE antibodies.
Chemiluminescence intensity in images obtained by measurement was converted into a numeric value in the same manner as in (A) using ImageQuant TL (GE Healthcare). […]

[2] = system: IgE antibody from one patient having allergies to salmons and bastard halibut; test: Confirmation of epitope cross-reactivity (ELISA, FIG. 5); settings: for binding of IgE antibody to peptide: serum of fish-allergic patient with symptoms to salmon and bastard halibut vs serum mixture from 4 non-fish-allergic subjects, FIG. 5
Text: FIG. 5 is a diagram showing results of measuring […] using the sera of a fish-allergic patient and a non-fish-allergic subject as to a peptide of epitope No. 11 (SEQ ID NO: 160) having the amino acid sequence “SMVLVKMKEIAEAYL” derived from salmon heat shock cognate 70 kDa protein, and a peptide having the amino acid sequence “AMVLVKMKETAEAYL” derived from bastard halibut heat shock cognate 70 kDa protein. The numeric values on the ordinate represent absorbance for light at a wavelength of 450 nm.
Amino acids other than particularly important amino acids in the region (SEQ ID NO: 250) important for binding, in epitope No. 11 having the amino acid sequence “SMVLVKMKEIAEAYL” (SEQ ID NO: 160) found in salmon heat shock cognate 70 kDa protein in Table 3 were defined as any given amino acid (X). NCBI was searched for proteins having the resulting amino acid sequence “EXXXXYL” (SEQ ID NO: 248). As a result, the amino acid sequence “AMVLVKMKETAEAYL” (SEQ ID NO: 451) of bastard halibut heat shock 70 kDa protein (accession number: XP_019944736.1) was identified. […]
To be specific, ELISA was carried out according to the following procedure. • (1) The concentrations of the biotinylated peptides were adjusted to 1 μg/mL with PBST. • (2) Each peptide solution was added at 40 μL to each well of a 384-well plate coated with streptavidin, and shaken at room temperature for one hour. […] Absorbance at 450 nm was measured.
A peptide having this amino acid sequence “AMVLVKMKETAEAYL” of bastard halibut heat shock 70 kDa protein and a peptide having the amino acid sequence “SMVLVKMKEIAEAYL” of salmon heat shock cognate 70 kDa protein were each prepared by the same procedure as in Example 10(A), and the presence or absence of binding thereto of IgE antibodies present in the serum of a fish-allergic patient having allergy symptoms to salmon and bastard halibut and the serum of a non-fish-allergic subject (serum mixture from 4 subjects) was measured by the same technique as therein.

[3] = system: IgE antibody in the serum of a fish-allergic patient; test: Immunoblotting of two-dimensional electrophoresis patterns of fish meat proteins with patient serum; settings: for spots detected by immunoblotting, different from spots with serum of non-fish-allergic subject: proteins contained in salmon meat; for specific binding to IgE antibodies from fish-allergic patients: spots in two-dimensional electrophoresis gel of proteins in fish, patients diagnosed with immediate-type allergy
Procedure: Proteins contained in fish were analyzed by the aforementioned technique to identify antigens of an allergy to fish. To be specific, proteins were extracted from fish meat and subjected to two-dimensional electrophoresis under the conditions described below.
The electrophoresis in the first dimension was isoelectric focusing, which was performed using isoelectric focusing gels with a gel-strip length of 5 to 10 cm and a gel pH range of 3 to 10. The pH gradient of the gels in the direction of electrophoresis was as follows: with the total gel-strip length being taken as 1, the gel-strip length up to pH 5 was “a=0.15 to 0.3”, the gel-strip length from pH 5 to 7 was “b=0.4 to 0.7”, and the gel-strip length above pH 7 was “c=0.15 to 0.3”. More specifically, the isoelectric focusing was performed using the IPG gels, Immobiline Drystrip (pH3-10NL), produced by GE Healthcare Bio-Sciences Corporation (hereinafter abbreviated as “GE”). The electrophoresis system used was IPGphor produced by GE. The maximum current of the electrophoresis system was limited to 75 μA per gel strip. The voltage program adopted to perform the first-dimensional isoelectric focusing was as follows: (1) a constant voltage step was performed at a constant voltage of 300 V until the volt-hours reached 750 Vhr (the current variation width during electrophoresis for 30 minutes before the end of this step was 5 μA); (2) the voltage was increased gradually to 1000 V for 300 Vhr; (3) the voltage was further increased gradually to 5000 V for 4500 Vhr; and then (4) the voltage was held at a constant voltage of 5000 V until the total Vhr reached 12000.
The electrophoresis in the second dimension was SDS-PAGE, which was performed using polyacrylamide gels whose gel concentration at the distal end in the direction of electrophoresis was set to 3 to 6% and whose gel concentration at the proximal end was set to a higher value than that at the distal end. More specifically, the SDS-PAGE was performed using NuPAGE 4-12% Bris-Tris Gels (IPG well, Mini, 1 mm) produced by Life Technologies. The electrophoresis system used was XCell SureLock Mini-Cell produced by Life Technologies. The electrophoresis was run at a constant voltage of 200 V for about 45 minutes using an electrophoresis buffer composed of 50 mM MOPS, 50 mM Tris base, 0.1% (w/v) SDS and 1 mM EDTA.
Identification of antigens by immunoblotting was carried out by taking all the steps up to the step of “Second-dimensional SDS-PAGE” as described above in Example 1, followed by the steps of “Transfer to membrane”, “Immunoblotting” and “Analysis” as described below.
To be specific, proteins in the second-dimensional electrophoresis gels were transferred to a membrane (PVDF membrane) according to the following procedure. • (1) The PVDF membrane was immersed in 100% methanol followed by milliQ water, and then moved into the transfer buffer to hydrophilize the PVDF membrane. • (2) After sponge, filter paper, the second-dimensional electrophoresis gels treated by second-dimensional SDS-PAGE, the hydrophilized PVDF membrane, filter paper, and sponge were put in place in this order, the transfer system was energized at a constant voltage of 30 V for one hour. Immunoblotting
Immunoblotting of the membrane was carried out using, as a primary antibody, a serum sample from patient 1 with a fish allergy or a serum sample from a non-fish-allergic subject. This fish-allergic patient 1 was a patient diagnosed with immediate-type allergy to fish. […]

[4] = serum from fish-allergic patient 3 (FIG. 1B right)
[5] = serum from fish-allergic patient 2 (FIG. 1B left)

## 11 (SMVLVKMKEIAEAYL; not fully specified (N-terminus)) [compound 11]
[1]
  Positions of amino acids of region important for binding in epitope: 9-15
[2]; between fish species
  epitope cross-reactivity: cross-reactivity between the fish species salmon and bastard halibut

## AMVLVKMKETAEAYL (not fully specified (N-terminus))
[2]
  binding of IgE antibody to peptide: bound in a patient-specific manner

## ATP synthase subunit beta, mitochondrial [Spot 13]
[3]; [4]
  spots detected by immunoblotting, different from spots with serum of non-fish-allergic subject: newly detected
[3]
  specific binding to IgE antibodies from fish-allergic patients: specific binding to IgE antibodies

## Capping protein (actin filament) muscle Z-line beta [Spot 9]
[3]; [5]
  spots detected by immunoblotting, different from spots with serum of non-fish-allergic subject: detected
[3]
  specific binding to IgE antibodies from fish-allergic patients: specific binding to IgE antibodies

## Elongation factor 2 [Spot 4]
[3]
  specific binding to IgE antibodies from fish-allergic patients: specific binding to IgE antibodies

## Heat shock cognate 70 kDa protein [Spot 5]
[3]
  specific binding to IgE antibodies from fish-allergic patients: specific binding to IgE antibodies

## L-lactate dehydrogenase A chain-like [Spot 14]
[3]; [5]
  spots detected by immunoblotting, different from spots with serum of non-fish-allergic subject: newly detected
[3]
  specific binding to IgE antibodies from fish-allergic patients: specific binding to IgE antibodies

## Myosin heavy chain, fast skeletal muscle-like [Spot 10]
[3]; [4]
  spots detected by immunoblotting, different from spots with serum of non-fish-allergic subject: newly detected
[3]
  specific binding to IgE antibodies from fish-allergic patients: specific binding to IgE antibodies

## SMVLVKMKEIAEAYL (not fully specified (N-terminus)) [Epitope No. 11]
[2]
  binding of IgE antibody to peptide: bound in a patient-specific manner
